Read-outs that look alike come from different tables or passages of the source.

One series concerns oral mucosa cells. Put plainly: Genotoxic effects on oral mucosa cells. The class given is cell-based, human. Particulars: for Binucleation / Karyolysis / Karyorrhexis / Micronucleus / Normal: 30 min ex vivo. How it is done: The tests were performed according to the recommendations established by the Code of Ethics of the World Medical Association, after approval by the ethics committee of the Centro Universitário de Patos (number: 3621284). Blood samples (types A, B, and O) and smears of oral mucosa were donated by young, healthy adults. First, the oral mucosa cells were collected from the donors, which was done with a cyto-brush (smear collector) in the cheek area, and the material obtained was placed in 5 mL of 0.9% NaCl. As controls, cells treated with hydrogen peroxide −0.0005% (positive control) and untreated cells (negative control) were used. The cells were washed twice with saline and centrifuged for 10 min at 400× g and kept in saline. After the third wash, the cells were exposed (ex vivo) to A2 substance at 50, 100, 500, and 1000 µg/mL concentrations for 30 min. The material was centrifuged and the supernatant was discarded before smear preparation. The cells were homogenized in a vortex and placed on the slides at room temperature for drying for 15 min. Then, they were fixed with methanol: acetic acid (3:1) for 15 min and stained with 2% Giemsa.

The nature of another series: Hemolytic activity. Particulars: human, 0.5% red blood cell suspension. The class given is cell-based. How it is done: The tests were performed according to the recommendations established by the Code of Ethics of the World Medical Association, after approval by the ethics committee of the Centro Universitário de Patos (number: 3621284). Blood samples (types A, B, and O) and smears of oral mucosa were donated by young, healthy adults.
The red blood cell (RBC) samples from blood donors were diluted in 0.9% NaCl at a 1:30 ratio and centrifuged at 2500 rpm for five minutes to obtain the 0.5% suspension free of white blood cells and platelets. Then, the A2 substance was added to the red blood cell suspensions, at 50, 100, 500, and 1000 µg/mL concentrations. As controls, a suspension of red cells without treatment (0% hemolysis) were used as a negative control and a suspension of red cells treated with 1% Triton X-100 (100% hemolysis) as a positive control. The assay was incubated for one hour at 22 ± 2 °C. After that time, the samples were centrifuged at 700× g for 5 min and hemolysis was quantified by spectrophotometry at a wavelength of 540 nm.

In the series on oral mucosa cells (50 µg/mL), `O=C(CCl)Nc1ccc(F)c([N+](=O)[O-])c1` [A2, 2-chloro-N-(4-fluoro-3-nitrophenyl)acetamide] came in with a Binucleation of 0.00%, a Karyolysis of 1.00%, a Karyorrhexis of 1.00% and a Micronucleus of 0.50%. Also, the Normal in the series with oral mucosa cells (50 µg/mL) was determined as 97.50%. In the series on oral mucosa cells (100 µg/mL), this compound showed a Binucleation of 0.00%, a Karyolysis of 3.00%, a Karyorrhexis of 4.00% and a Micronucleus of 0.50%. For the same compound, the Normal in the series with oral mucosa cells (100 µg/mL) was determined as 92.50%. Moreover, in the series on oral mucosa cells (500 µg/mL), the Binucleation stood at 0.50%, the Karyolysis stood at 4.00%, the Karyorrhexis came out at 5.00% and the Micronucleus was 0.70%. In addition, the Normal with oral mucosa cells (500 µg/mL) stood at 86.80%. In the series with oral mucosa cells (1000 µg/mL), this compound yielded a Binucleation of 0.50%, a Karyolysis of 5.00%, a Karyorrhexis of 7.00% and a Micronucleus of 2.00%. Moreover, the Normal with oral mucosa cells (1000 µg/mL) was found to be 83.50%. Besides, in the series with oral mucosa cells (all tested concentrations (50–1000 µg/mL)), the normal cells result is on record as “greater than 80%”. Moreover, the hemolysis at 1 h in “Hemolytic activity” (blood types A, B and O, 50–500 µg/mL, all tested blood types, 1 h at 22 ± 2 °C) was 4 to 20%. Moreover, the hemolysis at 1 h, 1000 µg/mL in the series “Hemolytic activity” (blood type O, read-out: hemolysis (average erythrocyte lysis)) stood at 8%. The hemolysis at 1 h, 1000 µg/mL in “Hemolytic activity” (blood types A and B, read-out: hemolysis) was in the range of 37 to 47%.

These data come from article PMC7504751, “Potential of 2-Chloro-N-(4-fluoro-3-nitrophenyl)acetamide Against Klebsiella pneumoniae and In Vitro Toxicity Analysis” (Molecules, 2020).
